# Results as given in US6897209B2, “Labelled factor XIIIa substrates” (GE Healthcare Limited, priority 1997, dated 2005).
# How the values were obtained:
# human plasma clots [1] = target: T1, human plasma clots (Homo sapiens, UniProt P00488); assay: Incorporation into human plasma clots (in vitro plasma clot assay); assay type: biochemical
# T1 construct: Factor XIII is transformed into its active form Factor XIIIa by thrombin in the presence of calcium ions; from tissue; host or cells: human plasma, clotted in vitro with thrombin and calcium chloride
# T1 sequence (P00488 39-732): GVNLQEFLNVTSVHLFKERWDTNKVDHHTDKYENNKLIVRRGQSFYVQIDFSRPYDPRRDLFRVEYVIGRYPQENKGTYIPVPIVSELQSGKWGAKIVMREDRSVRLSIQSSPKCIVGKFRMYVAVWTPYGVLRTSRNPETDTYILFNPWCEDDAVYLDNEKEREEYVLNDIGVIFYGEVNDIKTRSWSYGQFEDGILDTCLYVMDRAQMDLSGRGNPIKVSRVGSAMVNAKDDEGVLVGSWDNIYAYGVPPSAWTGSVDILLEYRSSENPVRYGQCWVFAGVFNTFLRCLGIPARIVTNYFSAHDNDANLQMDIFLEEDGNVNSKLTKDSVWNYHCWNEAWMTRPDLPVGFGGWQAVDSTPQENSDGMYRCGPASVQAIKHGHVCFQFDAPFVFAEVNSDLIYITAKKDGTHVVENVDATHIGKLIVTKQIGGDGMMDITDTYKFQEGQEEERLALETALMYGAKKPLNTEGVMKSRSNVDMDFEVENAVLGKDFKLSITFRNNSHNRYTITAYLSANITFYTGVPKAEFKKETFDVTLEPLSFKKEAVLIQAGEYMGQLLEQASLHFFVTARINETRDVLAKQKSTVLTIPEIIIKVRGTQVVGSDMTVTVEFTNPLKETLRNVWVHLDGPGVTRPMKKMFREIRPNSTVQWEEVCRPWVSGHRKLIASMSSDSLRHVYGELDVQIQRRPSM
# human plasma clots [2] = assay: as above; assay type: biochemical; conditions: control vials without thrombin and calcium chloride, 60 minutes
# Factor XIIIa = target: T2, Factor XIIIa (Homo sapiens, UniProt P00488); assay: Factor XIIIa dependency of incorporation (dimethylcasein uptake, normal vs Factor XIII deficient plasma); assay type: biochemical; conditions: 1 KBq/ml, 60 minutes; uptake in normal plasma minus Factor XIII deficient plasma
# T2 construct: Factor XIII is transformed into its active form Factor XIIIa by thrombin in the presence of calcium ions; from tissue; host or cells: human plasma
# T2 sequence (P00488 39-732 limits assumed): T1 sequence (P00488 39-732)
# Method: The assay was changed by replacing the mercaptoethanol with aprotinin at a final concentration of 2 μg/ml, and dimethylcasein (DMC) was used instead of casein.
# [3] = Normal rat biodistribution; assay type: in vivo; conditions: i.v., male Wistar rats, Mean±SD n=3
# Summary of the method: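 Male Wistar rats (100–150 g) received radiolabelled tracer (8 MBq/ml, 0.1–0.2 ml) i.v. and were dissected mostly at 2, 15, 30, 60 and 240 min. Tissue uptake as % ID, mean±SD, n=3; urine and faeces excretion collected in metabolism cages.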
# [4] = tested on: clots induced in rat inferior vena cava; assay: Incorporation into clots induced in a rat model (rat inferior vena cava model); assay type: in vivo; conditions: rat IVC model
# Summary of the method: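 Male Wistar rats (250-350 g) were anaesthetised with 15% urethane, and compounds were injected 5 min after clot induction. Animals were killed at 60 min, and clots (about 27 mg) and tissues were weighed and counted. Uptake was given as cpm/g clot by dose/g animal and as clot-to-background ratios.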
# [5] = compound injected 5 min post-induction, clot removed after 60 min
structure (smiles),measurement,setting,value
"CC(CNCc1ccccc1O)(CNCc1ccccc1O)CNC(=O)c1ccc(S(=O)(=O)NCCCCCN)cc1 [Compound 25, N,N′-bis-(2-hydroxybenzyl)-2-(4-N-(5-aminopentyl)amidosulphonyl)benzamidomethyl-2-methyl-propane-1,3-diamine]",% specific uptake*,human plasma clots [1]; % retained with thrombin − % retained no thrombin,12.9%
same,% retained in plasma clot assay (with thrombin),"human plasma clots [1]; human plasma with thrombin and calcium chloride, 60 minutes, ca. 20° C.",15%
same,% retained in plasma clot assay (no thrombin),human plasma clots [2],1.9%
same,% specific DMC casein uptake,Factor XIIIa,26%
same,% ID Blood,[3]; 2 min post-injection,23.0 ± 2.9 % ID
same,% ID GI Tract,[3]; 2 min post-injection,8.53 ± 0.66 % ID
same,% ID Heart,[3]; 2 min post-injection,0.74 + 0.1 % ID
same,% ID Kidney,[3]; 2 min post-injection,5.37 ± 1.3 % ID
same,% ID Liver,[3]; 2 min post-injection,13.6 ± 2.47 % ID
same,% ID Lung,[3]; 2 min post-injection,3.42 ± 0.39 % ID
same,% ID Muscle,[3]; 2 min post-injection,25.7 ± 2.0 % ID
same,% ID Urine,[3]; 2 min post-injection,0.11 ± 0.06 % ID
same,% ID Blood,[3]; 15 min post-injection,3.9 ± 0.17 % ID
same,% ID GI Tract,[3]; 15 min post-injection,45.68 ± 4.1 % ID
same,% ID Heart,[3]; 15 min post-injection,0.16 + 0.01 % ID
same,% ID Kidney,[3]; 15 min post-injection,7.13 ± 0.4 % ID
same,% ID Liver,[3]; 15 min post-injection,13.5 ± 0.14 % ID
same,% ID Lung,[3]; 15 min post-injection,1.37 ± 0.03 % ID
same,% ID Muscle,[3]; 15 min post-injection,8.93 ± 0.38 % ID
same,% ID Urine,[3]; 15 min post-injection,4.62 ± 2.9 % ID
same,% ID Blood,[3]; 30 min post-injection,2.12 ± 0.34 % ID
same,% ID GI Tract,[3]; 30 min post-injection,54.7 ± 2.09 % ID
same,% ID Heart,[3]; 30 min post-injection,0.1 + 0.03 % ID
same,% ID Kidney,[3]; 30 min post-injection,5.6 ± 0.1 % ID
same,% ID Liver,[3]; 30 min post-injection,9.66 ± 1.65 % ID
same,% ID Lung,[3]; 30 min post-injection,1.17 ± 0.01 % ID
same,% ID Muscle,[3]; 30 min post-injection,6.43 ± 0.41 % ID
same,% ID Urine,[3]; 30 min post-injection,11.6 ± 2.0 % ID
same,% ID Blood,[3]; 60 min post-injection,1.84 ± 0.19 % ID
same,% ID GI Tract,[3]; 60 min post-injection,55.87 ± 2.5 % ID
same,% ID Heart,[3]; 60 min post-injection,0.08 + 0.03 % ID
same,% ID Kidney,[3]; 60 min post-injection,4.24 ± 0.4 % ID
same,% ID Liver,[3]; 60 min post-injection,6.73 ± 0.48 % ID
same,% ID Lung,[3]; 60 min post-injection,0.96 ± 0.11 % ID
same,% ID Muscle,[3]; 60 min post-injection,4.95 ± 0.09 % ID
same,% ID Urine,[3]; 60 min post-injection,17.5 ± 1.7 % ID
same,% ID Blood,[3]; 240 min post-injection,0.62 ± 0.16 % ID
same,% ID GI Tract,[3]; 240 min post-injection,71.3 ± 0.7 % ID
same,% ID Heart,[3]; 240 min post-injection,0.02 + 0.01 % ID
same,% ID Kidney,[3]; 240 min post-injection,3.19 ± 0.1 % ID
same,% ID Liver,[3]; 240 min post-injection,3.97 ± 0.53 % ID
same,% ID Lung,[3]; 240 min post-injection,0.21 ± 0.05 % ID
same,% ID Muscle,[3]; 240 min post-injection,1.3 ± 0.38 % ID
same,% ID Urine,[3]; 240 min post-injection,16.81 ± 0.43 % ID
same,Clot/Blood,[4]; 60 min,3.3
same,Clot/Heart,[4]; 60 min,5
same,Clot/Liver,[4]; 60 min,0.65
same,Clot/Lung,[4]; 60 min,1.5
same,% ID/g (clot uptake),[4]; [5],0.29 ± 0.09 % ID/g
same,Relative conc (cpm/g of clot by dose/g animal),[4]; [5],0.8 ± 0.2
